Experimental data taken from ChEMBL document CHEMBL2074152, “Structural determinants of substrates for the prostaglandin transporter PGT” (Mol Pharmacol, 1996).

Target: Solute carrier organic anion transporter family member 2A1 (Rattus norvegicus, UniProt Q00910)
Test: TP_TRANSPORTER: inhibition of PGE2 uptake in PGT-expressing HeLa cells
Assay type: functional, cell-based

Row | Compound | Ki
1 | CCCCC[C@H](O)/C=C/[C@H]1C=CC(=O)[C@@H]1CCCCCCC(=O)O [PROSTAGLANDIN A1] | 286 nM
2 | CCCCC[C@H](O)/C=C/C1=C(CCCCCCC(=O)O)C(=O)CC1 [PROSTAGLANDIN B1] | 71.2 nM
3 | CCCCC[C@H](O)/C=C/[C@H]1C(=O)C[C@H](O)[C@@H]1CCCCCCC(=O)O [PROSTAGLANDIN D1] | 162 nM
4 | CCCCC[C@H](O)/C=C/[C@@H]1[C@@H](C/C=C\CCCC(=O)O)[C@@H]2C[C@H]1OO2 [PROSTAGLANDIN H2] | 38.2 nM
